# Results: publication PMC11302666, “The two alternative NADH:quinone oxidoreductases from Staphylococcus aureus: two players with different molecular and cellular roles” (Microbiology Spectrum, 2024)
# B1: NDH-2B (Staphylococcus aureus subsp. aureus NCTC 8325) (protein)
# chain: MKNLVLLGGGYGNMRIMSRILTTSLPQDYTVTLVDRMPFHGLKPEFYALAAGTKSDKDVRMKFPNHPQVNTVYGEINDIDLDAQIVSVGNSKIDYDELIIGLGCEDKYHNVPGAEEYTHSIQTLSKARDTFHSISELPEGAKVGIVGAGLSGIELASELRESRSDLEIYLYDRGPRILRNFPEKLSKYVAKWFAKNNVTVVPNSNINKVEPGKIYNCDEPKDIDLVVWTAGIQPVEVVRNLPIDINSNGRVIVNQYHQVPTYRNVYVVGDCADLPHAPSAQLAEVQGDQIADVLKKQWLNEPLPDKMPELKVQGIVGSLGDKQGFAYIMDRTVTGRLASILKSGVLWLYKYHNG
# Tests used:
# NDH-2B [1] = biological target: T1, NDH-2B (Staphylococcus aureus, UniProt Q2FZW0); assay: tryptophan fluorescence quenching titration and STD-NMR; KM […] in steady-state kinetics; assay type: binding
# T1 construct: gene SAOUHSC_00875
# T1 sequence (Q2FZW0 1-354): B1 chain
# NDH-2B [2] = biological target: T1, NDH-2B; assay: co-purified flavin identified by HPLC and UV-visible spectrum; assay type: binding
# NDH-2B [3] = biological target: T1, NDH-2B; assay: steady-state NADPH:DMN oxidoreductase inhibition (Ki app); also tryptophan fluorescence quenching titration; assay type: biochemical
# NDH-2A = biological target: T2, NDH-2A (Staphylococcus aureus, UniProt Q2FZV7); assay: NADH:DMN oxidoreductase specific activity of purified enzyme, pH […]; assay type: biochemical
# T2 construct: gene SAOUHSC_00878
# NDH-2B [4] = biological target: T1, NDH-2B; assay: NADH:DMN oxidoreductase specific activity of purified enzyme; assay type: biochemical
# NDH-2B [5] = biological target: T1, NDH-2B; assay: tryptophan fluorescence quenching titration and STD-NMR; assay type: binding
# NDH-2B [6] = biological target: T1, NDH-2B; assay: tryptophan fluorescence quenching titration; assay type: binding
# purified protein = substrate: NC(=O)C1=CN([C@@H]2O[C@H](COP(=O)(O)OP(=O)(O)OC[C@H]3O[C@@H](n4cnc5c(N)ncnc54)[C@H](OP(=O)(O)O)[C@@H]3O)[C@@H](O)[C@H]2O)C=CC1; assay: purified protein; assay type: biochemical, Staphylococcus aureus; conditions: FAD binding site different from that of the quinone; pH 7.0
# T2 sequence (Q2FZV7 whole entry): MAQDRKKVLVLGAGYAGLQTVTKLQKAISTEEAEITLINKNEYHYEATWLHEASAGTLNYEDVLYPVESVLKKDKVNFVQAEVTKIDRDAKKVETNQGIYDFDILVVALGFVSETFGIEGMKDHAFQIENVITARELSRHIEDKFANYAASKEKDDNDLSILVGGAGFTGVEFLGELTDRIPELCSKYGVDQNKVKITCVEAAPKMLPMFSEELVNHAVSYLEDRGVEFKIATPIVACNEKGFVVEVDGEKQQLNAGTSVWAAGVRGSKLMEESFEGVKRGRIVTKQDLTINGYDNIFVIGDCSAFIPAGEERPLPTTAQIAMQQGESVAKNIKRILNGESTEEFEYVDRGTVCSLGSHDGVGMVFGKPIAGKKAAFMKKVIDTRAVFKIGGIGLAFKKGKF
molecule,measurement,setting,value
"CC1=C(C)C(=O)c2ccccc2C1=O [DMN, 2,3-dimethyl-1,4-naphthoquinone]",Kd,NDH-2B [1],160 ± 35 µM
"Cc1cc2nc3c(=O)[nH]c(=O)nc-3n(C[C@H](O)[C@H](O)[C@H](O)COP(=O)(O)OP(=O)(O)OC[C@H]3O[C@@H](n4cnc5c(N)ncnc54)[C@H](O)[C@@H]3O)c2cc1C [FAD, flavin adenine dinucleotide]",co-purified flavin identified by HPLC and UV-visible spectrum,NDH-2B [2],Subsequent HPLC analysis confirmed the flavin as flavin adenine dinucleotide (FAD)
"CCCCCCCc1cc(O)c2ccccc2[n+]1[O-] [HQNO, 2-n-heptyl-4-hydroxyquinoline-N-oxide]",Ki,NDH-2B [3],6.4 ± 1.25 µM
NC(=O)C1=CN([C@@H]2O[C@H](COP(=O)(O)OP(=O)(O)OC[C@H]3O[C@@H](n4cnc5c(N)ncnc54)[C@H](O)[C@@H]3O)[C@@H](O)[C@H]2O)C=CC1 [NADH],NDH-2A,NDH-2A,122.10 ± 18.30 µmol/min/mg
same,NDH-2B,NDH-2B [4],34.03 ± 0.86 µmol/min/mg
NC(=O)c1ccc[n+]([C@@H]2O[C@H](COP(=O)(O)OP(=O)(O)OC[C@H]3O[C@@H](n4cnc5c(N)ncnc54)[C@H](OP(=O)(O)O)[C@@H]3O)[C@@H](O)[C@H]2O)c1 [NADP^+],Kd,NDH-2B [5],182 ± 29 µM
NC(=O)c1ccc[n+]([C@@H]2O[C@H](COP(=O)([O-])OP(=O)(O)OC[C@H]3O[C@@H](n4cnc5c(N)ncnc54)[C@H](O)[C@@H]3O)[C@@H](O)[C@H]2O)c1 [NAD^+],Kd,NDH-2B [6],170 ± 7.6 µM
B1,Km,purified protein,80.4 ± 7.7 µM
